Experimental data published in paper PMC2720641 (Biochemistry, 2009).

Legend:
mCOX-2 = target: T1, mCOX-2 (Mus musculus, UniProt Q05769); assay: IC50 for inhibition of mCOX-2 oxygenation of AA after preincubation; assay type: biochemical, murine; details: read-out: IC50 for inhibition of AA oxygenation; 2 min preincubation; 50 μM AA
T1 sequence (Q05769 18-604): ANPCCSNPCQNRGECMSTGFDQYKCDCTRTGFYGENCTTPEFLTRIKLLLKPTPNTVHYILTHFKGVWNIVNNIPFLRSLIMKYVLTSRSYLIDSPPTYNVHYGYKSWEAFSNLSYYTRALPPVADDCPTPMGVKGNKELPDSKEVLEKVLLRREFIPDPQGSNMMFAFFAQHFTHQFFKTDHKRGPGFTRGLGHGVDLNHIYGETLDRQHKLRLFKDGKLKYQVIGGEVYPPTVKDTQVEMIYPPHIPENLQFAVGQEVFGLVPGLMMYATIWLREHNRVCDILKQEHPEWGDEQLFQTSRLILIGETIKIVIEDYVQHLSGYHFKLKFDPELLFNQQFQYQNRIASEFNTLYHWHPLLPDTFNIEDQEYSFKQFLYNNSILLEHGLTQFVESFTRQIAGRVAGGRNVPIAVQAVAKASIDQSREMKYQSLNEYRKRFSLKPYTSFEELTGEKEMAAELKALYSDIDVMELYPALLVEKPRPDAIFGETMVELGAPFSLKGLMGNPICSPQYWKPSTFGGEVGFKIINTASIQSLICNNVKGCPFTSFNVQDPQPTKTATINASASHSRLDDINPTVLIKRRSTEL

murine COX-2 (mCOX-2) [1] = target: T2, murine COX-2 (mCOX-2) (Mus musculus, UniProt Q05769); assay: Instantaneous inhibition of mCOX-2 oxygenation of 2-AG; assay type: biochemical; details: substrate 2-AG
T2 sequence (Q05769 18-604): T1 sequence (Q05769 18-604)

murine COX-2 (mCOX-2) [2] = target: T2, murine COX-2 (mCOX-2); assay: Instantaneous inhibition of mCOX-2 oxygenation of AA; assay type: biochemical; details: substrate AA

| IC50 (mCOX-2) [µM] | Mode of inhibition of 2-AG oxygenation (murine COX-2 (mCOX-2) [1]) | Oxygenation of 2-AG at 5 μM inhibitor (murine COX-2 (mCOX-2) [1]; mefenamate 5 μM) | Mode of inhibition of AA oxygenation (murine COX-2 (mCOX-2) [2]) | SMILES |
| --- | --- | --- | --- | --- |
| ~500 | – | – | – | COc1ccc2c(c1)c(CC(=O)O)cn2C(=O)c1ccc(Cl)cc1 [2′-des-methylindomethacin] |
| – | noncompetitive | completely inhibited | competitive | Cc1cccc(Nc2ccccc2C(=O)O)c1C [mefenamic acid] |
